From PMC6273687, “Design, Synthesis and Biological Evaluation of Novel Primaquine-Cinnamic Acid Conjugates of the Amide and Acylsemicarbazide Type” (Molecules, 2016)

Experiments:
[1] = Inhibition of linoleic acid peroxidation (AAPH-induced); settings: 5 × 10^−5 M
Description: For initiating the lipid peroxidation free radical AAPH was used. Final solution in the UV cuvette consisted of 10 μL linoleate sodium solution (c = 16 mM), 0.93 mL phosphate buffer (c = 0.05 M), pH 7.4, thermostated at 37 °C. 50 μL AAPH solution (c = 40 mM) and 10 μL of the tested compounds were added. The experiment was performed at 37 °C under air. The oxidation of linoleic acid sodium salt was monitored at 234 nm. The assays were repeated at least in triplicate and the standard deviation of absorbance was less than 10% of the mean. Trolox was used under the same experimental conditions as a reference compound.

[2] = tested on: SW 620 colon carcinoma cell line; test: Growth inhibition of tumor cell lines in vitro (MTT / cell counting); format: cell-based; settings: Homo sapiens, 72 h; SW 620, 3 days
Description: (§1) The experiments were carried out on a murine lymphocytic leukemia cell line (L1210) and five human tumor cell lines: CEM, HeLa, NCI-H460, SW 620 and MCF-7. The cells were cultured as monolayers and maintained in Dulbecco′s modified Eagle medium (DMEM) supplemented with 10% fetal bovine serum (FBS), 2 mM L-glutamine, 100 U/mL penicillin and 100 μg/mL streptomycin in a humidified atmosphere with 5% CO2 at 37 °C.
(§2) The growth inhibition activity of the compounds was assessed as described previously. The cell lines were inoculated onto a series of standard 96-well microtiter plates on day 0, at 1.5 × 10^4 cells/mL (SW 620, H460) to 2.5 × 10^4 cells/mL (MCF-7, CEM and L1210), depending on the growth of the tumor cell line. Test agents were then added in ten-fold dilutions (10^−8 to 10^−4 M) and the cell cultures were then incubated for 3–4 days with 5% CO2 at 37 °C. Working dilutions of the compounds were freshly prepared on the day of testing.
(§3) After 3 (MCF-7, SW 620, NCI-H460) or 4 days (CEM, L1210), the cell growth rate was evaluated first light microscopically, then by viable cell counting and/or by performing the MTT assay, which detects dehydrogenase activity in live, not dead, cells. The absorbance (A) was measured on a microplate reader at 570 nm. The absorbance is directly proportional to the number of living, metabolically active cells. […] If however, all of the tested concentrations produce PGs exceeding the respective reference level of effect (e.g., PG value of 50), then the highest tested concentration is assigned as the default value, which is preceded by a “>” sign. Minimum two individual experiments were carried out and each test point was performed in quadruplicate.

[3] = tested on: L1210 murine lymphocytic leukemia cell line; test: as above; format: cell-based; settings: Mus musculus, 96 h; L1210, 4 days
Description: as §1, §2, §3

[4] = tested on: CEM acute lymphoblastic leukemia cell line; test: as above; format: cell-based; settings: Homo sapiens, 96 h, 4 days
Description: as §1, §2, §3

[5] = tested on: HeLa cervical carcinoma cell line; test: as above; format: cell-based; settings: Homo sapiens
Description: as §1, §2, §3

[6] = tested on: NCI-H460 lung carcinoma cell line; test: as above; format: cell-based, human; settings: Homo sapiens, 72 h; NCI-H460, 3 days
Description: as §1, §2, §3

[7] = tested on: MCF-7 breast carcinoma cell line; test: as above; format: cell-based, human; settings: Homo sapiens, MCF7, 72 h; MCF-7, 3 days
Description: as §1, §2, §3

[8] = Interaction with the stable radical DPPH (reducing ability)
Description: To a solution of DPPH in absolute ethanol the appropriate volume of the compounds (50 or 100 µM final concentrations) dissolved in DMSO was added. The absorbance was recorded at 517 nm after 20 and 60 min at room temperature. The experiments were repeated at least in triplicate and the standard deviation of absorbance was less than 10% of the mean. NDGA was used under the same experimental conditions as a reference compound.

[9] = molecular target: T1, soybean lipoxygenase (LOX) (Glycine max, UniProt P08170); test: LOX inhibition study in vitro; format: biochemical; settings: for IC50: values in parentheses in Table 3
T1 construct: purchased Sigma-Aldrich
T1 sequence (P08170 1-839): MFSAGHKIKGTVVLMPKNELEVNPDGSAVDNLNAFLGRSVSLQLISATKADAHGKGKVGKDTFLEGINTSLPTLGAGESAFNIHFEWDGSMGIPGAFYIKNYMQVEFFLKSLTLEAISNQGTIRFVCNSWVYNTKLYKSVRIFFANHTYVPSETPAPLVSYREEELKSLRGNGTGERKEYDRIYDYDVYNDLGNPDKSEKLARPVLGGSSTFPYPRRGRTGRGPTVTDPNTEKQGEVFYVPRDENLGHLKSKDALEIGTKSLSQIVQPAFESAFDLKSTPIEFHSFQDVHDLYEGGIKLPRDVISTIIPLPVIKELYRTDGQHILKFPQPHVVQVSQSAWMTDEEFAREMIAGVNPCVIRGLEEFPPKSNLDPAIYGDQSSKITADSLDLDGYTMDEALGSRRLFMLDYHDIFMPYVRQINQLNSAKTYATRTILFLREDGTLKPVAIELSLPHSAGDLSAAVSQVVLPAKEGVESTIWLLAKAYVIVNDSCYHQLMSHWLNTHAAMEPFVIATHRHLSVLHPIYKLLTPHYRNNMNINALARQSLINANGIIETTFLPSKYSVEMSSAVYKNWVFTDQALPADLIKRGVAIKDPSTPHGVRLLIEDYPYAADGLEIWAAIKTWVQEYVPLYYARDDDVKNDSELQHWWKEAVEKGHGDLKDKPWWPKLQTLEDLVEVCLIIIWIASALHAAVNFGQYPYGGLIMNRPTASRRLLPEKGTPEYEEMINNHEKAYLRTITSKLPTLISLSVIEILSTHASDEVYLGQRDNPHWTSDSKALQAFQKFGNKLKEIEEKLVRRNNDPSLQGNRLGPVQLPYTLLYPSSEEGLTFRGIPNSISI
Description: LOX inhibitory assay in vitro was accomplished as described previously. The test compounds (stock solutions 10 mM in DMSO) were incubated at room temperature with sodium linoleate (c = 0.1 mM) and 0.2 mL of LOX enzyme solution (1/9 × 10^−4 m/V in saline). The conversion of sodium linoleate to 13-hydroperoxylinoleic acid was measured at 234 nm and compared with the reference inhibitor. Several concentrations were used for the IC50 determination.

human coronavirus (229E) = test: microbe, parasite or virus in culture; format: cell-based; settings: read-out: EC50 (concentration required to reduce virus-induced cytopathogenicity by 50%), HEL cell cultures

SMILES | LP Inhibition (%) [1] [%] | IC50 [2] [µM] | IC50 [3] [µM] | IC50 [4] [µM] | IC50 [5] [µM] | IC50 [6] [µM] | IC50 [7] [µM] | DPPH-reducing ability RA (%) ([8]; 1 × 10^−4 M, 20 min) | DPPH-reducing ability RA (%) ([8]; 1 × 10^−4 M, 60 min) | DPPH-reducing ability RA (%) ([8]; 5 × 10^−5 M, 20 min) | DPPH-reducing ability RA (%) ([8]; 5 × 10^−5 M, 60 min) | inhibition at 100 µM ([9]; 1 × 10^−4 M) [%] | EC50 (human coronavirus (229E)) [µM] | IC50 [9] [µM]
COc1cc(NC(C)CCCNC(=O)NNC(=O)/C=C/c2ccccc2)c2ncccc2c1 (centres unmarked) [7a, (E)-1-Cinnamoyl-4-(4-(6-methoxyquinolin-8-ylamino)pentyl)semicarbazide] | 83 | > 100 | 7 ± 3.1 | 3 ± 0.5 | 12 ± 2 | > 100 | 2.5 ± 1.9 | 39 | 100 | 49 | 100 | 36 | – | –
COc1cc(NC(C)CCCNC(=O)NNC(=O)/C(C)=C/c2ccccc2)c2ncccc2c1 (centres unmarked) [7b, (E)-4-(4-(6-Methoxyquinolin-8-ylamino)pentyl)-1-(2-methyl-3-phenylacryloyl)semicarbazide] | 62 | 9.5 ± 0.9 | 53 ± 5 | 25 ± 14 | 47 ± 6 | 50 ± 4 | 16 ± 9 | 84 | 99 | 42 | 100 | – | 15 | 100
COc1cc(NC(C)CCCNC(=O)NNC(=O)/C=C/c2ccc(OC)c(OC)c2)c2ncccc2c1 (centres unmarked) [7d, (E)-1-(3-(3,4-Dimethoxyphenyl)acryloyl)-4-(4-(6-methoxyquinolin-8-ylamino)pentyl)semicarbazide] | 88 | 25 ± 9 | 40 ± 14 | 93 ± 46 | 92 ± 30 | 32 ± 21 | 1.9 ± 1.8 | 100 | 100 | 55 | 100 | – | – | 10
COc1cc(NC(C)CCCNC(=O)NNC(=O)/C=C/c2cc(OC)c(OC)c(OC)c2)c2ncccc2c1 (centres unmarked) [7e, (E)-4-(4-(6-Methoxyquinolin-8-ylamino)pentyl)-1-(3-(3,4,5-trimethoxyphenyl)acryloyl)semicarbazide] | 86 | 48 ± 17 | 57 ± 5 | 54 ± 12 | 70 ± 2 | 63 ± 2 | 1.4 ± 0.1 | 46 | 100 | 60 | 100 | – | – | 43
COc1cc(NC(C)CCCNC(=O)NNC(=O)/C=C/c2ccc3c(c2)OCO3)c2ncccc2c1 (centres unmarked) [7f, (E)-1-(3-(Benzo[d][1,3]dioxo-5-yl)acryloyl)-4-(4-(6-methoxyquinolin-8-ylamino)pentyl)semicarbazide] | 88 | 17 ± 5 | 4.8 ± 0.2 | 7.4 ± 2.1 | 31 | 27 ± 3 | 0.6 ± 0.3 | 74 | 100 | 47 | 100 | – | 12.5 | 55
COc1cc(NC(C)CCCNC(=O)NNC(=O)/C=C/c2ccccc2F)c2ncccc2c1 (centres unmarked) [7h, (E)-1-(3-(2-Fluorophenyl)acryloyl)-4-(4-(6-methoxyquinolin-8-ylamino)pentyl)semicarbazide] | 67 | 12 ± 4 | 40 ± 4 | 15 ± 2 | 46 ± 2 | 12 ± 0.2 | 5.9 ± 2 | 52 | 100 | 61 | 100 | – | – | 41
